Data published in ChEMBL document CHEMBL1255467, “Comparative in vitro antimicrobial activities of torezolid (TR-700), the active moiety of a new oxazolidinone, torezolid phosphate (TR-701), determination of tentative disk diffusion interpretive criteria, and quality control ranges” (2010).

Tests used:
[1] = tested on: Streptococcus pneumoniae; assay: Antimicrobial activity against Streptococcus pneumoniae by broth dilution method; format: functional
[2] = tested on: Enterococcus faecalis; assay: Antimicrobial activity against vancomycin-susceptible Enterococcus faecalis by broth dilution method; format: functional
[3] = tested on: Streptococcus pneumoniae; assay: Antimicrobial activity against penicillin-intermediate Streptococcus pneumoniae by broth dilution method; format: functional
[4] = tested on: Moraxella catarrhalis; assay: Antimicrobial activity against Moraxella catarrhalis by broth dilution method; format: functional
[5] = tested on: Staphylococcus aureus; assay: Antimicrobial activity against Staphylococcus aureus by broth dilution method; format: functional
[6] = tested on: Haemophilus influenzae; assay: Antimicrobial activity against Haemophilus influenzae by broth dilution method; format: functional
[7] = tested on: Staphylococcus sp.; assay: Antimicrobial activity against methicillin-susceptible coagulase-negative Staphylococcus by broth dilution method; format: functional
[8] = tested on: Enterococcus sp.; assay: Antimicrobial activity against Enterococcus by broth dilution method; format: functional
[9] = tested on: Haemophilus influenzae; assay: Antimicrobial activity against beta-lactamase positive Haemophilus influenzae by broth dilution method; format: functional; conditions: for MIC90: read-out: MIC90
[10] = tested on: Staphylococcus sp.; assay: Antimicrobial activity against Staphylococcus sp. by broth dilution method; format: functional
[11] = tested on: Staphylococcus aureus; assay: Antimicrobial activity against vancomycin-nonsusceptible Staphylococcus aureus by broth dilution method; format: functional
[12] = tested on: Listeria monocytogenes; assay: Antimicrobial activity against Listeria monocytogenes by broth dilution method; format: functional
[13] = tested on: Streptococcus pneumoniae; assay: Antimicrobial activity against penicillin-susceptible Streptococcus pneumoniae by broth dilution method; format: functional
[14] = tested on: Corynebacterium jeikeium; assay: Antimicrobial activity against Corynebacterium jeikeium by broth dilution method; format: functional
[15] = tested on: Staphylococcus aureus; assay: Antimicrobial activity against methicillin-susceptible Staphylococcus aureus by broth dilution method; format: functional
[16] = tested on: Enterococcus faecium; assay: Antimicrobial activity against vancomycin-susceptible Enterococcus faecium by broth dilution method; format: functional
[17] = tested on: Haemophilus influenzae; assay: Antimicrobial activity against beta-lactamase negative Haemophilus influenzae by broth dilution method; format: functional
[18] = tested on: Streptococcus sp; assay: Antimicrobial activity against streptococcal sp. by broth dilution method
[19] = tested on: Haemophilus influenzae; assay: Antimicrobial activity against ampicillin-nonsusceptible beta-lactamase negative Haemophilus influenzae by broth dilution method; format: functional
[20] = tested on: Streptococcus viridans; assay: Antimicrobial activity against Streptococcus viridans by broth dilution method; format: functional
[21] = tested on: Enterococcus faecium; assay: Antimicrobial activity against vancomycin-resistant Enterococcus faecium by broth dilution method; format: functional
[22] = tested on: Staphylococcus aureus; assay: Antimicrobial activity against methicillin-resistant Staphylococcus aureus by broth dilution method; format: functional; conditions: Staphylococcus aureus
[23] = tested on: Staphylococcus sp.; assay: Antimicrobial activity against methicillin-resistant coagulase-negative Staphylococcus by broth dilution method; format: functional
[24] = tested on: Streptococcus pneumoniae; assay: Antimicrobial activity against penicillin-resistant Streptococcus pneumoniae by broth dilution method; format: functional
[25] = tested on: Staphylococcus aureus; assay: Antimicrobial activity against linezolid-resistant Staphylococcus aureus by broth dilution method; format: functional
[26] = tested on: Enterococcus faecalis; assay: Antimicrobial activity against vancomycin-resistant Enterococcus faecalis by broth dilution method; format: functional

CO/N=C(\C(=O)N[C@@H]1C(=O)N2C(C(=O)O)=C(COC(C)=O)CS[C@H]12)c1csc(N)n1 [CEFOTAXIME]
0.25 µg/mL: MIC50 [4]
> 64 µg/mL: MIC50 ([2]; Enterococcus faecalis) | MIC90 ([2]; Enterococcus faecalis) | MIC90 ([5]; Staphylococcus aureus) | MIC50 ([8]; Enterococcus sp.) | MIC90 ([8]; Enterococcus sp.) | MIC90 ([10]; Staphylococcus sp.) | MIC50 ([11]; Staphylococcus aureus) | MIC90 ([11]; Staphylococcus aureus) | MIC50 ([16]; Enterococcus faecium) | MIC90 ([16]; Enterococcus faecium) | MIC [21]
32 µg/mL: MIC50 [12] | MIC90 [12] | MIC50 [14] | MIC90 [14]
16 µg/mL: MIC50 [22]
> 8 µg/mL: MIC50 ([5]; Staphylococcus aureus)
1 µg/mL: MIC90 [4] | MIC90 ([18]; Streptococcus sp.) | MIC50 [24]
0.015 µg/mL: MIC50 ([6]; Haemophilus influenzae) | MIC50 ([9]; Haemophilus influenzae) | MIC90 ([9]; Haemophilus influenzae) | MIC ([13]; Streptococcus pneumoniae) | MIC50 ([13]; Streptococcus pneumoniae) | MIC90 ([17]; Haemophilus influenzae)
8 µg/mL: MIC50 [23] | MIC90 [24]
0.008 µg/mL: MIC ([17]; Haemophilus influenzae) | MIC50 ([17]; Haemophilus influenzae)
0.5 µg/mL: MIC90 ([3]; Streptococcus pneumoniae) | MIC90 ([6]; Haemophilus influenzae) | MIC50 ([7]; Staphylococcus sp.) | MIC50 ([19]; Haemophilus influenzae) | MIC90 ([19]; Haemophilus influenzae) | MIC90 [20]
0.12 µg/mL: MIC50 ([1]; Streptococcus pneumoniae) | MIC50 ([3]; Streptococcus pneumoniae) | MIC50 [20]
2 µg/mL: MIC90 ([1]; Streptococcus pneumoniae) | MIC90 ([7]; Staphylococcus sp.) | MIC50 ([15]; Staphylococcus aureus) | MIC90 ([15]; Staphylococcus aureus)
4 µg/mL: MIC50 ([10]; Staphylococcus sp.)
0.03 µg/mL: MIC90 ([13]; Streptococcus pneumoniae) | MIC50 ([18]; Streptococcus sp.)

CC(=O)NC[C@H]1CN(c2ccc(N3CCOCC3)c(F)c2)C(=O)O1 [LINEZOLID]
1 µg/mL: MIC50 ([1]; Streptococcus pneumoniae) | MIC50 ([3]; Streptococcus pneumoniae) | MIC50 ([7]; Staphylococcus sp.) | MIC50 ([13]; Streptococcus pneumoniae) | MIC50 [14] | MIC90 [14] | MIC50 ([18]; Streptococcus sp.) | MIC50 [23] | MIC50 [24]
8 µg/mL: MBC90 [1] | MBC90 [3] | MIC [4] | MIC50 [4] | MIC90 [4] | MBC50 [5] | MBC50 [10] | MBC90 [13] | MBC50 [18]
> 8 µg/mL: MBC ([2]; Enterococcus faecalis) | MBC ([6]; Haemophilus influenzae) | MIC50 ([6]; Haemophilus influenzae) | MIC90 ([6]; Haemophilus influenzae) | MBC [25] | MIC50 [25] | MIC90 [25] | MBC ([9]; Haemophilus influenzae) | MIC ([9]; Haemophilus influenzae) | MIC50 ([9]; Haemophilus influenzae) | MIC90 ([9]; Haemophilus influenzae) | MBC ([16]; Enterococcus faecium) | MBC ([17]; Haemophilus influenzae) | MIC50 ([17]; Haemophilus influenzae) | MIC90 ([17]; Haemophilus influenzae) | MBC ([19]; Haemophilus influenzae) | MIC ([19]; Haemophilus influenzae) | MIC50 ([19]; Haemophilus influenzae) | MIC90 ([19]; Haemophilus influenzae) | MBC [23]
> 2 µg/mL: MBC ([1]; Streptococcus pneumoniae) | MBC ([3]; Streptococcus pneumoniae) | MBC ([5]; Staphylococcus aureus) | MBC ([7]; Staphylococcus sp.) | MBC ([10]; Staphylococcus sp.) | MBC ([13]; Streptococcus pneumoniae) | MBC ([18]; Streptococcus sp.)
> 4 µg/mL: MBC ([8]; Enterococcus sp.) | MBC ([15]; Staphylococcus aureus) | MBC [21]
2 µg/mL: MIC90 ([1]; Streptococcus pneumoniae) | MIC50 ([2]; Enterococcus faecalis) | MIC90 ([2]; Enterococcus faecalis) | MIC90 ([3]; Streptococcus pneumoniae) | MIC50 ([5]; Staphylococcus aureus) | MIC90 ([5]; Staphylococcus aureus) | MIC90 ([7]; Staphylococcus sp.) | MIC50 ([8]; Enterococcus sp.) | MIC90 ([8]; Enterococcus sp.) | MIC50 ([10]; Staphylococcus sp.) | MIC90 ([10]; Staphylococcus sp.) | MBC50 [11] | MBC ([11]; Staphylococcus aureus) | MIC50 ([11]; Staphylococcus aureus) | MIC [12] | MIC50 [12] | MIC90 [12] | MIC90 ([13]; Streptococcus pneumoniae) | MIC50 ([15]; Staphylococcus aureus) | MIC90 ([15]; Staphylococcus aureus) | MIC ([16]; Enterococcus faecium) | MIC50 ([16]; Enterococcus faecium) | MIC90 ([16]; Enterococcus faecium) | MIC90 ([18]; Streptococcus sp.) | MIC50 [20] | MIC90 [20] | MIC50 [21] | MIC50 [22] | MIC90 [24] | MIC50 [26] | MIC90 [26]
4 µg/mL: MBC50 [1] | MBC50 [3] | MBC90 [11] | MIC90 ([11]; Staphylococcus aureus) | MBC50 [13] | MIC90 [21] | MIC90 [22] | MIC90 [23] | MBC [24]
>8 µg/mL: MBC50 [2] | MBC90 [2] | MBC90 [5] | MBC50 [6] | MBC90 [6] | MBC50 [7] | MBC90 [7] | MBC50 [8] | MBC90 [8] | MBC50 [9] | MBC90 [9] | MBC90 [10] | MBC50 [15] | MBC90 [15] | MBC50 [16] | MBC90 [16] | MBC50 [17] | MBC90 [17] | MBC90 [18] | MBC50 [19] | MBC90 [19]
